# Measured values from BindingDB's records for patent US10065961 (Ogeda, 2018).
# Target: T1, Neuromedin-K receptor (Homo sapiens, UniProt P29371)
# T1 sequence (P29371 whole entry): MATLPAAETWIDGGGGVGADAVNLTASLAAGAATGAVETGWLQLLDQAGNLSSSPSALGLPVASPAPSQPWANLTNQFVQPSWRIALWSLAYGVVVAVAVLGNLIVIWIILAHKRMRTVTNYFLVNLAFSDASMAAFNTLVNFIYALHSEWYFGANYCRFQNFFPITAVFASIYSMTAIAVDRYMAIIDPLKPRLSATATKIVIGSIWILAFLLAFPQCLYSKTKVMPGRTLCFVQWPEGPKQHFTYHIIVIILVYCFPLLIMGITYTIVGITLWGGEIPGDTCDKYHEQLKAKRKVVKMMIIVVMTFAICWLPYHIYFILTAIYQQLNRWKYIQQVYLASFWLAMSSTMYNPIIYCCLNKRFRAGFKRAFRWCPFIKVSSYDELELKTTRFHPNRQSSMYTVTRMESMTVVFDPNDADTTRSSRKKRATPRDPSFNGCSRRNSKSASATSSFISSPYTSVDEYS
# Assay: Aequorin Assay with Human NK-3 Receptor
# Procedure: The antagonist activity of compounds of the invention is measured following pre-incubation (3 minutes) of the compound with the cells, followed by addition of the reference agonist (NKA) at a final concentration equivalent to the EC80 (3 nM) and recording of emitted light (FDSS 6000 Hamamatsu) over the subsequent 90-second period. The intensity of the emitted light is integrated using the reader software.
smiles,measurement,value
"Cc1coc(-c2nnc3n2CCN[C@@H]3C)n1 [US10065961, Compound 27]",IC50,0.051 µM
